Laboratory results published in US20220220128A1, “HETEROCYCLIC COMPOUNDS AS KINASE INHIBITORS, COMPOSITIONS COMPRISING THE HETEROCYCLIC COMPOUND, AND METHODS OF USE THEREOF” (JS Innopharm (Shanghai) Ltd, priority 2019, published 2022).

Columns and labels:
BAF3-KIF5B-RET cells = biological target: T1, BAF3-KIF5B-RET cells (Homo sapiens, UniProt P07949); assay: BAF3-KIF5B-RET Cell proliferation assay (CellTiter-Glo, 72 hours); format: cell-based; conditions: growth inhibition, read-out: BA/F3-KIF5B-RET Cellular activity
T1 construct: fused on or other part: P33176 (Kinesin-1 heavy chain)
T1 sequence (P07949 whole entry, change not shown, the tested form may be a part): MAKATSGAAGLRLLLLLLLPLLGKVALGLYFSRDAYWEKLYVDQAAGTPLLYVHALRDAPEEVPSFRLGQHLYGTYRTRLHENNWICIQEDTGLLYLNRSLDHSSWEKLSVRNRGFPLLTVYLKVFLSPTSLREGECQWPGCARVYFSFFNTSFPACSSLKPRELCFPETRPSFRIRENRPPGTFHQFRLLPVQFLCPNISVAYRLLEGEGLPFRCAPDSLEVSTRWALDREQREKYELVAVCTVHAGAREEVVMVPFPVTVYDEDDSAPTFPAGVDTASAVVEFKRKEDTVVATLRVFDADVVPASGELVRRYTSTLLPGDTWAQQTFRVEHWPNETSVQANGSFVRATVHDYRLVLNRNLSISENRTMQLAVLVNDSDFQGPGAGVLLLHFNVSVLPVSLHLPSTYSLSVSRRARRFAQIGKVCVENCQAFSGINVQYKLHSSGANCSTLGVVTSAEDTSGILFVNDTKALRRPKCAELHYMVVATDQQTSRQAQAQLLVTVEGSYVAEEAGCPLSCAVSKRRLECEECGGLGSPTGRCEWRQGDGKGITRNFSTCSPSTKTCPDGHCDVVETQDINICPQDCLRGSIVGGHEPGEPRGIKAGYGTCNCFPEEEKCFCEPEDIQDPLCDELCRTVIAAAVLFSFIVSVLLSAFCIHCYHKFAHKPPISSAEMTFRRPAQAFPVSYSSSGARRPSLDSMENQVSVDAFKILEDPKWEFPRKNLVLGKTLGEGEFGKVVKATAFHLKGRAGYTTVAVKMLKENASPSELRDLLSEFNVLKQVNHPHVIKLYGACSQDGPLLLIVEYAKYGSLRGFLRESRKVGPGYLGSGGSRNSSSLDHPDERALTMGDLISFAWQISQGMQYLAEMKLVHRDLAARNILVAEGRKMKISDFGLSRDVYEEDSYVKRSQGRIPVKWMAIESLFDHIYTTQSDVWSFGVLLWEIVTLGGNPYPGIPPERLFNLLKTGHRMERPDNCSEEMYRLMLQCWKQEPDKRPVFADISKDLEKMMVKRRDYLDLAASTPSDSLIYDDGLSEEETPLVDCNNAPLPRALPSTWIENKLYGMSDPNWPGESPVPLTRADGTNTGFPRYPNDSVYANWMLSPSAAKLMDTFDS
How it was run: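 Cells seeded at 2,000/well in RPMI-1640 with 10% FBS and left 24 h at 37 °C, then exposed 72 h to nine compound levels (final 1 μM down to 0.00015 μM, 0.1% DMSO). CellTiter-Glo luminescence gave viability versus DMSO wells, from which IC50 was fitted.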

human RET kinase = biological target: T2, human RET kinase (Homo sapiens, UniProt P07949); assay: RET Kinase Assay (LanthaScreen TR-FRET enzymatic assay); format: biochemical; conditions: 7 nM RET, 23 μM ATP
T2 construct: purchased Carna 08-159
T2 sequence (P07949 29-1114): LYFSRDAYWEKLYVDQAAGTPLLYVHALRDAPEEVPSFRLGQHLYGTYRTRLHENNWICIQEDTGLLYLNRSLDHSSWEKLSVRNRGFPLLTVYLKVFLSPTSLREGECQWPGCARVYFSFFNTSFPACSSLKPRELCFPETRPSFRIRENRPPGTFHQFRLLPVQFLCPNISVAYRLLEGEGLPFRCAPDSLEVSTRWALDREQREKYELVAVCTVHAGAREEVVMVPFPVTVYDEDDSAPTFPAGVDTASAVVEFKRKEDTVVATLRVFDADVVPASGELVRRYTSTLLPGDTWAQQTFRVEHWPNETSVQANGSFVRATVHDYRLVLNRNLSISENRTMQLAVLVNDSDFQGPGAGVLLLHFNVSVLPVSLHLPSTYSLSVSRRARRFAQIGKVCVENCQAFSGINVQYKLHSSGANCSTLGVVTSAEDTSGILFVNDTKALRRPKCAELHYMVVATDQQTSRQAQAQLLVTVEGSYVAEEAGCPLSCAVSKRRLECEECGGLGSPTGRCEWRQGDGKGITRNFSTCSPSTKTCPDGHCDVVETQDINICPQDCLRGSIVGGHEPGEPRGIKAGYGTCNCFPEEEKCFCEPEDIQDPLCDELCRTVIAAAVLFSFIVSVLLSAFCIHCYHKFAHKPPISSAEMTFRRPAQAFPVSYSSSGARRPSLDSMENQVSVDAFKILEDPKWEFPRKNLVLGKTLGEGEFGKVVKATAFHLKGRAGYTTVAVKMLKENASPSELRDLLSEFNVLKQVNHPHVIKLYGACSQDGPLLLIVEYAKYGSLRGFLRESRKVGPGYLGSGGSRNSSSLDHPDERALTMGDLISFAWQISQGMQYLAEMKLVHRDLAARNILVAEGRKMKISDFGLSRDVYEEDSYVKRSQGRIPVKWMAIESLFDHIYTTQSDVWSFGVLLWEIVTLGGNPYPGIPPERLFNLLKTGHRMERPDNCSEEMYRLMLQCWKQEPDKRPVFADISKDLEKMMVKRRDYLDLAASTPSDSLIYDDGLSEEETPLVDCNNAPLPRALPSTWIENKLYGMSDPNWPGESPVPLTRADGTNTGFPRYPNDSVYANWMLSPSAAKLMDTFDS
How it was run: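 TR-FRET enzymatic read-out using 23 μM ATP, 3 μM FAM-P2 substrate and 7 nM human RET, after 15-min compound pretreatment at room temperature and a 1 h reaction at 28° C in HEPES pH 7.5 buffer. Percent of DMSO control fitted to nonlinear sigmoid curves for IC50.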

Which results are given for COc1cccc(C(=O)N[C@]2(C)C[C@H]3CN(c4cnc(-c5cc(-c6cnn(C)c6)cn6ncc(C#N)c56)cn4)C[C@H]3C2)n1 [Example 146, N-((3aR,5s,6aS)-2-(5-(3-cyano-6-(1-methyl-1H-pyrazol-4-yl)pyrazolo[1,5-a]pyridin-4-yl)pyrazin-2-yl)-5-methyloctahydrocyclopenta[c]pyrrol-5-yl)-6-methoxypicolinamide]?
GI50 (BAF3-KIF5B-RET cells): ≤ 0.01 µM; IC50 (human RET kinase): ≤ 0.01 µM

What does the source list for Cn1cc(-c2cc(-c3cnc(N4C[C@@H]5C[C@](C)(NC(=O)c6ncccc6Cl)C[C@@H]5C4)cn3)c3c(C#N)cnn3c2)cn1 [Example 199, 3-chloro-N-((3aR,5r,6aS)-2-(5-(3-cyano-6-(1-methyl-1H-pyrazol-4-yl)pyrazolo[1,5-a]pyridin-4-yl)pyrazin-2-yl)-5-methyloctahydrocyclopenta[c]pyrrol-5-yl)picolinamide]?
GI50 (BAF3-KIF5B-RET cells): 0.01 to 0.05 µM; IC50 (human RET kinase): ≤ 0.01 µM

Which results are given for COc1cccc(C(=O)NC[C@@H]2[C@H]3CN(c4ccc(-c5cc(-c6cnn(C)c6)cn6ncc(C#N)c56)cn4)C[C@@H]23)n1 [Example 195, N-(((1R,5S,6s)-3-(5-(3-cyano-6-(1-methyl-1H-pyrazol-4-yl)pyrazolo[1,5-a]pyridin-4-yl)pyridin-2-yl)-3-azabicyclo[3.1.0]hexan-6-yl)methyl)-6-methoxypicolinamide]?
GI50 (BAF3-KIF5B-RET cells): ≤ 0.01 µM; IC50 (human RET kinase): ≤ 0.01 µM

What does the source list for CCOc1cc(-c2cnc(N3C4CC5CC3CC(NC(=O)c3ccc(OC)nc3)(C5)C4)cn2)c2c(C#N)cnn2c1 [Example 167, N-((1R,3S,5s,7s)-2-(5-(3-cyano-6-cthoxypyrazolo[1,5-a]pyridin-4-yl)pyrazin-2-yl)-2-azaadamantan-5-yl)-6-methoxynicotinamide]?
GI50 (BAF3-KIF5B-RET cells): 0.05 to 0.1 µM; IC50 (human RET kinase): ≤ 0.01 µM

Which results are given for Cn1cc(-c2cc(-c3cnc(N4C5CC6CC4CC(NC(=O)OC(C)(C)C)(C6)C5)cn3)c3c(C#N)cnn3c2)cn1 [Example 109, tert-butyl ((1R,3S,5s,7s)-2-(5-(3-cyano-6-(1-methyl-1H-pyrazol-4-yl)pyrazolo[1,5-a]pyridin-4-yl)pyrazin-2-yl)-2-azaadamantan-5-yl)carbamate]?
GI50 (BAF3-KIF5B-RET cells): ≤ 0.01 µM; IC50 (human RET kinase): ≤ 0.01 µM

For COc1ccc(CN2[C@@H]3CC[C@H]2[C@H]2CN(c4ccc(-c5cc(-c6cnn(C)c6)cn6ncc(C#N)c56)cn4)C[C@H]23)cn1 [Example 118, 4-(6-((3aR,4S,7R,7aS)-8-((6-methoxypyridin-3-yl)methyl)hexahydro-1H-4,7-epiminoisoindol-2(3H)-yl)pyridin-3-yl)-6-(1-methyl-1H-pyrazol-4-yl)pyrazolo[1,5-a]pyridine-3-carbonitrile], which GI50 (BAF3-KIF5B-RET cells) is on record?
Its GI50 is 0.01 to 0.05 µM.

And the IC50 (human RET kinase)?
The IC50 was ≤ 0.01 µM.

How did the GI50 (BAF3-KIF5B-RET cells) turn out when CCOc1cc(-c2cnc(N3C4CC5CC3CC(N)(C5)C4)cn2)c2c(C#N)cnn2c1 [Example 163, 4-(5-((1R,3S,5s,7s)-5-amino-2-azaadamantan-2-yl)pyrazin-2-yl)-6-ethoxypyrazolo[1,5-a]pyridine-3-carbonitrile] was run?
Its GI50 is > 0.1 µM.

And the IC50 (human RET kinase)?
The IC50 was 0.01 to 0.05 µM.

Which GI50 (BAF3-KIF5B-RET cells) does the source give for COc1ccc(C(=O)NC23CC4CC(C2)N(c2cnc(-c5cc(-c6cnn(C)c6)cn6ncc(C#N)c56)cn2)C(C4)C3)cn1 [Example 165, N-((1R,3S,5s,7s)-2-(5-(3-cyano-6-(1-methyl-1H-pyrazol-4-yl)pyrazolo[1,5-a]pyridin-4-yl)pyrazin-2-yl)-2-azaadamantan-5-yl)-6-methoxynicotinamide] here?
The GI50 was ≤ 0.01 µM.

And the IC50 (human RET kinase)?
Its IC50 is ≤ 0.01 µM.

What does the source list for COc1cccnc1C(=O)N[C@]1(C)C[C@H]2CN(c3cnc(-c4cc(-c5cnn(C)c5)cn5ncc(C#N)c45)cn3)C[C@H]2C1 [Example 151, N-((3aR,5s,6aS)-2-(5-(3-cyano-6-(1-methyl-1H-pyrazol-4-yl)pyrazolo[1,5-a]pyridin-4-yl)pyrazin-2-yl)-5-methyloctahydrocyclopenta[c]pyrrol-5-yl)-3-methoxypicolinamide]?
GI50 (BAF3-KIF5B-RET cells): ≤ 0.01 µM; IC50 (human RET kinase): ≤ 0.01 µM
